These results are taken from patent US5776944A, “7-(4-aminomethyl-3-methyloxyiminopyrroplidin-1-yl)-1-cyclopropyl-6-flu oro-4-oxo-1,4-dihydro-1,8-naphthyridine-3-carboxylic acid and the process for the preparation thereof” (LG Chemical Ltd., priority 1994, dated 1998).

Data set [1] is described as follows: Chemical stability under heating. Here is the method: The anhydride and each of the hydrates was introduced into a glass vial and maintained at 70° C.
The next data set relates to Micrococcus luteus 9341. In words: In vitro antibacterial activity (MIC, agar dilution), Biological Example 1. Format: cell-based. The following applies: 18 h; Micrococcus luteus 9341, Table 25; read-out: Minimum Inhibitory Concentration.
The subject of data set [2] is Streptococcus faecalis 29212. The data set is described as above. Format: cell-based. The note with it: Enterococcus faecalis, 18 h; Streptococcus faecalis 29212, Table 25; read-out: Minimum Inhibitory Concentration.
Data set [3] concerns Staphylococcus epidermidis 887E. The data set is described as above. The following applies: 18 h, Table 25, read-out: Minimum Inhibitory Concentration. Format: cell-based.
The subject of data set [4] is Citrobacter diversus 2046E. Described as above. Format: cell-based. The note with it: Citrobacter koseri, 18 h, Table 25, read-out: Minimum Inhibitory Concentration.
The next data set relates to Escherichia coli 851E. The data set is described as above. Format: cell-based. The following applies: 18 h, Table 25, read-out: Minimum Inhibitory Concentration.
For data set [5], the system named is Escherichia coli TEM5 3739E. Kind of data set: microbe, parasite or virus in culture. Format: cell-based. The following applies: TEM53739E, 18 h, read-out: Minimum Inhibitory Concentration.
Data set [6] relates to Salmonella typimurium 14028. In words: In vitro antibacterial activity (MIC, agar dilution), Biological Example 1. Format: cell-based. The note with it: 18 h; Salmonella typimurium 14028, Table 25; read-out: Minimum Inhibitory Concentration.
A further data set deals with Bacillus subtilis 6633. The description is as above. Format: cell-based. The following applies: 18 h; Bacillus subtilis 6633, Table 25; read-out: Minimum Inhibitory Concentration.
The nature of the next data set: Pharmacokinetic test. Format: in vivo. The note with it: rat, blood, 20 mg/kg, SD rats (male); for Cmax: read-out: Cmax (maximum blood concentration); for half-life: read-out: T1/2 (biological half life) (converted); for Tmax: read-out: Tmax (time showing maximum blood concentration); for bioavailability: printed in the IV line, read-out: F (bioavailability).
In data set [7] the test system is Klebsiella aerogenes 1976E. In words: In vitro antibacterial activity (MIC, agar dilution), Biological Example 1. Format: cell-based. The following applies: 18 h, Table 25, read-out: Minimum Inhibitory Concentration.
Data set [8] has as its system Staphylococcus aureus giorgio. The description is as above. Format: cell-based. The note with it: 18 h, Table 25, read-out: Minimum Inhibitory Concentration.
The next data set concerns Escherichia coli 3190Y. The description is as above. Format: cell-based. The note with it: 18 h, Table 25, read-out: Minimum Inhibitory Concentration.
In data set [9] the test system is Escherichia coli TEM3 3455E. In words: microbe, parasite or virus in culture. Format: cell-based. The note with it: TEM33455E, 18 h, read-out: Minimum Inhibitory Concentration.
In data set [10] the test system is Staphylococcus aureus 241. In words: In vitro antibacterial activity (MIC, agar dilution), Biological Example 1. Format: cell-based. The following applies: 18 h; Staphylococcus aureus 241, Table 25; read-out: Minimum Inhibitory Concentration.
The subject of data set [11] is Pseudomonas aeruginosa 10145. Described as above. The following applies: 18 h; Pseudomonas aeruginosa 10145, Table 25; read-out: Minimum Inhibitory Concentration. Format: cell-based.
Data set [12] has as its system Enterobacter cloacae 1194E. Kind of data set: microbe, parasite or virus in culture. Format: cell-based. The note with it: 18 h, read-out: Minimum Inhibitory Concentration.
For the next data set, the system named is Enterobacter cloacae P99. Kind of data set: microbe, parasite or virus in culture. Format: cell-based. The note with it: P99, 18 h, read-out: Minimum Inhibitory Concentration.
Data set [13] concerns Escherichia coli TEM9 2639E. Kind of data set: microbe, parasite or virus in culture. Format: cell-based. The following applies: TEM92639E, 18 h, read-out: Minimum Inhibitory Concentration.
Another data set concerns Escherichia coli 10536. In words: In vitro antibacterial activity (MIC, agar dilution), Biological Example 1. Format: cell-based. The note with it: 18 h; Escherichia coli 10536, Table 25; read-out: Minimum Inhibitory Concentration.
The test system of data set [14] is Staphylococcus aureus 6538p. Described as above. The following applies: 18 h, Table 25, read-out: Minimum Inhibitory Concentration. Format: cell-based.
A further data set relates to Staphylococcus aureus 77. The data set is described as above. Format: cell-based. The note with it: 18 h; Staphylococcus aureus 77, Table 25; read-out: Minimum Inhibitory Concentration.
Data set [15] concerns Pseudomonas aeruginosa 1912E. The data set is described as above. Format: cell-based. The following applies: 18 h; Pseudomonas aeruginosa 1912E, Table 25; read-out: Minimum Inhibitory Concentration.
Data set [16] concerns Acinetobacter calcoaceticus 15473. The description is as above. Format: cell-based. The following applies: 18 h; Acinetobacter calcoaceticus 15473, Table 25; read-out: Minimum Inhibitory Concentration.
In data set [17] the test system is Klebsiella aerogenes 1082E. Described as above. Format: cell-based. The following applies: 18 h, Table 25, read-out: Minimum Inhibitory Concentration.
In data set [18] the test system is Staphylococcus epidermidis 178. The data set is described as above. Format: cell-based. The following applies: 18 h; Staphylococcus epidermidis 178, Table 25; read-out: Minimum Inhibitory Concentration.

In brackets after ≈: the same amount, converted by molar mass. Where two headings read alike, the source gives them in different places.

In [1], `CON=C1CN(c2nc3c(cc2F)c(=O)c(C(=O)O)cn3C2CC2)CC1CN` (stereo not shown) [Anhydrate, 7-(4-aminomethyl-3-methyloxyiminopyrrolidin-1-yl)-1-cyclopropyl-6-fluoro-4-oxo-1,4-dihydro-1,8-naphthyridine-3-carboxylic acid methanesulfonate anhydride] displayed a thermal stability of 99%. In addition, the fraction remaining at 336 h in data set [1] (thermal stability, 2 weeks, 70° C.) came out at 97%. This compound also came in with a share remaining at 672 h in data set [1] (thermal stability, 4 weeks, 70° C.) of 95%.

As to `CC(C)(C)ON=C1CN(c2nc3c(cc2F)c(=O)c(C(=O)O)cn3C2CC2)CC1CN` (stereo not shown) [Example 89, 7-(4-aminomethyl-3-t-butyloxyimino-pyrrolidin-1-yl)-1-cyclopropyl-6-fluoro-1,4-dihydro-4-oxo-1,8-naphthyridine-3-carboxylic acid], the MIC was 0.25 µg/mL (≈ 0.579 µM) in the data set with Micrococcus luteus 9341; 0.063 µg/mL (≈ 0.146 µM) in data set [2]; at most 0.008 µg/mL in data set [3]; 0.13 µg/mL (≈ 0.301 µM) in [4]; 0.063 µg/mL (≈ 0.146 µM) in the data set with Escherichia coli 851E; 0.13 µg/mL (≈ 0.301 µM) in data set [5]. Moreover, the MIC in data set [6] is 0.13 µg/mL (≈ 0.301 µM); with Bacillus subtilis 6633, at most 0.008 µg/mL; in data set [7], 0.5 µg/mL (≈ 1.16 µM); in [8], at most 0.008 µg/mL; in the data set on Escherichia coli 3190Y, 0.016 µg/mL (≈ 0.0371 µM); in [9] it was 0.25 µg/mL (≈ 0.579 µM). In addition, the MIC came to 1 µg/mL (≈ 2.32 µM) in data set [10]; 2 µg/mL (≈ 4.64 µM) in [11]; 0.13 µg/mL (≈ 0.301 µM) in data set [12]; 0.016 µg/mL (≈ 0.0371 µM) with Enterobacter cloacae P99; 0.063 µg/mL (≈ 0.146 µM) in [13]; 0.016 µg/mL (≈ 0.0371 µM) in the data set on Escherichia coli 10536. For the same compound, the MIC in data set [14] is at most 0.008 µg/mL; in the data set on Staphylococcus aureus 77, at most 0.008 µg/mL; in [15], 2 µg/mL (≈ 4.64 µM); in data set [16], 0.031 µg/mL (≈ 0.0718 µM); in data set [17] it was 0.25 µg/mL (≈ 0.579 µM); in data set [18], 0.5 µg/mL (≈ 1.16 µM). Moreover, in “Pharmacokinetic test” (PO), the Cmax is 4890 ± 2230 ng/mL. In addition, the values for the half-life in “Pharmacokinetic test” (PO) and in the data set “Pharmacokinetic test” (IV) were 6.69 ± 2.78 h and 2.29 ± 1.13 h, respectively. The Tmax in the data set “Pharmacokinetic test” (PO) turned out to be 2.18 ± 0.77 h. For the same compound, the bioavailability in “Pharmacokinetic test” is above 100%.

On to `CON=C1CN(c2c(F)cc3c(=O)c(C(=O)O)cn(C4CC4)c3c2F)CC1CN` (stereo not shown) [Example 177], for which the MIC in the data set on Micrococcus luteus 9341 is 0.063 µg/mL (≈ 0.155 µM); in [2], 0.031 µg/mL (≈ 0.0763 µM); in data set [3] it was at most 0.008 µg/mL; in [4], 0.031 µg/mL (≈ 0.0763 µM); in the data set on Escherichia coli 851E, 0.031 µg/mL (≈ 0.0763 µM); in data set [5], 0.13 µg/mL (≈ 0.32 µM). In addition, the MIC in [6] was 0.063 µg/mL (≈ 0.155 µM); in the data set on Bacillus subtilis 6633, at most 0.008 µg/mL; in data set [7], 0.13 µg/mL (≈ 0.32 µM); in data set [8], at most 0.008 µg/mL; in the data set with Escherichia coli 3190Y, at most 0.008 µg/mL; in data set [9], 0.25 µg/mL (≈ 0.615 µM). Moreover, the MIC in [10] is 0.5 µg/mL (≈ 1.23 µM); in [11] it was 0.5 µg/mL (≈ 1.23 µM); in data set [12] it was 0.063 µg/mL (≈ 0.155 µM); in the data set on Enterobacter cloacae P99 it was 0.016 µg/mL (≈ 0.0394 µM); in data set [13], 0.063 µg/mL (≈ 0.155 µM); in the data set on Escherichia coli 10536 it was at most 0.008 µg/mL. In addition, the MIC in [14] was at most 0.008 µg/mL; with Staphylococcus aureus 77 it was 0.016 µg/mL (≈ 0.0394 µM); in data set [15] it was 0.5 µg/mL (≈ 1.23 µM); in data set [16], 0.13 µg/mL (≈ 0.32 µM); in data set [17], 0.063 µg/mL (≈ 0.155 µM); in data set [18], 1 µg/mL (≈ 2.46 µM). Also, the Cmax in “Pharmacokinetic test” (PO) came to 370 ± 110 ng/mL. Further, the figures for the half-life in “Pharmacokinetic test” (PO) and in “Pharmacokinetic test” (IV) were 3.93 ± 1.31 h and 1.92 ± 0.38 h, respectively. Moreover, in the data set “Pharmacokinetic test” (PO), the Tmax worked out at 0.51 ± 0.33 h. Besides, the bioavailability in “Pharmacokinetic test” stood at 47.2%.
